# Experimental data: US9963434B2, “N-arylmethyl sulfonamide negative modulators of NR2A” (LUC THERAPEUTICS, priority 2013, dated 2018)
# Read-outs that look alike come from different tables or passages of the source.
# Molecular target: NR1/NR2A (Homo sapiens (Human), UniProt Q05586+Q12879)
# Experiment: FDSS Ca2+ influx inhibition assay in HEK293 cells expressing NR1/NR2A
# Format: cell-based
# Conditions: 3 μM glutamate, 3 μM glycine, 1 mM Ca2+
# Summary of the method: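 Fluo-8-loaded HEK293 NR1/NR2A cells preincubated 10 min with compound at 10 μM final (0.1% DMSO) in Ca2+/Mg2+-free HBSS with 20 mM HEPES. Stimulated with 3 μM glutamate, 3 μM glycine, 1 mM Ca2+; FDSS recording for 3 min, end/baseline fluorescence ratio compared with MK801.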
# [1] = inhibition relative to MK801, read-out: NR2A IC50
# Sequence of NR1/NR2A (Q12879 23-1464, other chains not shown): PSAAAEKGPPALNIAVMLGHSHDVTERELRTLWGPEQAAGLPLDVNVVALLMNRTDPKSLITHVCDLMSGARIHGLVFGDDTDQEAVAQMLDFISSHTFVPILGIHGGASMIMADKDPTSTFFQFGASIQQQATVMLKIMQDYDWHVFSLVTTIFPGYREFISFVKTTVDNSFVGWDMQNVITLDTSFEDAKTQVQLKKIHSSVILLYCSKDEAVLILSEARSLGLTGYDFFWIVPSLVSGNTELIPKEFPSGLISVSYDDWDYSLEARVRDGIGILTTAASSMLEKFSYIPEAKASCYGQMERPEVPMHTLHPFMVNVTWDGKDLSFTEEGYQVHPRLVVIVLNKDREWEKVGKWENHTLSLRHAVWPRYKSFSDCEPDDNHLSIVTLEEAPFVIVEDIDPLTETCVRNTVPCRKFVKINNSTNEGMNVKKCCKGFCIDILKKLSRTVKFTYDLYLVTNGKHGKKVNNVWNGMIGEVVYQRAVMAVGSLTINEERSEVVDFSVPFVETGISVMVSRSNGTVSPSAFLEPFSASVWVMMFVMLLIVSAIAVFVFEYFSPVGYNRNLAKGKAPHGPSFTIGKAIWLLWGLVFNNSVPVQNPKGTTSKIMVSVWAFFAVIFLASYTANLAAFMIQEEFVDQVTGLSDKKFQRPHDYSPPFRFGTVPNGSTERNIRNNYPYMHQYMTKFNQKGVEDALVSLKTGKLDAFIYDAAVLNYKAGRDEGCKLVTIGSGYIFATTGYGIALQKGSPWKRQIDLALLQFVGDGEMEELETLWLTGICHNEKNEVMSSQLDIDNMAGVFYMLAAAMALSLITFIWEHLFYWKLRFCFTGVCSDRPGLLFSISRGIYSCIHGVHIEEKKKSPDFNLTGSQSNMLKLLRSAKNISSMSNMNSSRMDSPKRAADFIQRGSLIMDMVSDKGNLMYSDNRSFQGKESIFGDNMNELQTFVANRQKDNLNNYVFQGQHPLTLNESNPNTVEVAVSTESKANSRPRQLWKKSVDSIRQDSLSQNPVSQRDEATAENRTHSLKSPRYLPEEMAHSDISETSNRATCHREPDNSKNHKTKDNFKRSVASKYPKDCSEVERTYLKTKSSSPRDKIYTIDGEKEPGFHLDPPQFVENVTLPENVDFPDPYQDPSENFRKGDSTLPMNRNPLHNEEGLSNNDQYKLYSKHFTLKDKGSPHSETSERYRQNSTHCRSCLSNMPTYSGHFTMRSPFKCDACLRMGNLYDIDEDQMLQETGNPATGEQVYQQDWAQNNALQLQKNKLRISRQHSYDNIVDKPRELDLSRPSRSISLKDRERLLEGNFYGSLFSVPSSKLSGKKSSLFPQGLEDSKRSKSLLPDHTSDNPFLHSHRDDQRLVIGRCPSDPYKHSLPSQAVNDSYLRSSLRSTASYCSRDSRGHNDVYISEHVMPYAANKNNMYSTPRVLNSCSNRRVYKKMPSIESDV
Structure (SMILES),IC50 [1] [µM],IC50 (read-out: Binned Activity) [µM]
COc1ccccc1CNC(=O)c1ccc(CNS(=O)(=O)c2ccc(F)c(Cl)c2)nc1 [6-(3-chloro-4-fluorobenzenesulfon-amidomethyl)-N-[(2-methoxyphenyl)methyl] pyridine-3-carboxamide],10,> 10
"Cc1nc(CNC(=O)c2ccc(CNS(=O)(=O)c3ccc(F)c(Cl)c3)nn2)cs1 [6-(3-chloro-4-fluorobenzenesulfon-amidomethyl)-N-[(2-methyl-1,3-thiazol-4-yl)methyl]pyridazine-3-carboxamide]",10,> 10
O=C(NCc1cnccn1)c1ccc(CNS(=O)(=O)c2ccc(F)c(Cl)c2)nn1 [6-(3-chloro-4-fluorobenzenesulfon-amidomethyl)-N-(pyrazin-2-ylmethyl)pyridazine-3-carboxamide],10,> 10
O=C(NCc1ncc(C(F)(F)F)cc1Cl)c1ccc(CNS(=O)(=O)c2ccc(F)c(Cl)c2)cn1 [5-(3-chloro-4-fluorobenzenesulfon-amidomethyl)-N-{[3-chloro-5-(trifluoromethyl)pyridin-2-yl]methyl}pyridine-2-carboxamide],10,> 10
"Cc1ncc(CNC(=O)c2ccc(CNC(=O)c3cccc(C#N)c3)cn2)s1 [5-{[(3-cyanophenyl)formamido]methyl}-N-[(2-methyl-1,3-thiazol-5-yl)methyl]pyridine-2-carboxamide]",10,> 10
Cc1ccc(CNC(=O)c2ccc(CNS(=O)(=O)c3ccc(F)c(Cl)c3)cn2)s1 [5-(3-chloro-4-fluorobenzenesulfon-amidomethyl)-N-[(5-methylthiophen-2-yl)methyl]pyridine-2-carboxamide],10,> 10
"Cc1ncc(CNC(=O)c2cnc(CNS(=O)(=O)c3ccsc3)cn2)s1 [N-[(2-methyl-1,3-thiazol-5-yl)methyl]-5-(thiophene-3-sulfonamidomethyl) pyrazine-2-carboxamide]",10,> 10
"Cc1ncc(CNC(=O)c2cnc(CNS(=O)(=O)c3ccc(Oc4ccccc4)nc3)cn2)s1 [N-[(2-methyl-1,3-thiazol-5-yl)methyl]-5-(6-phenoxypyridine-3-sulfonamidomethyl) pyrazine-2-carboxamide]",10,> 10
CC(NC(=O)c1ccc(CNS(=O)(=O)c2ccc(F)c(Cl)c2)nn1)c1cccs1 (stereo not shown) [6-(3-chloro-4-fluorobenzenesulfon-amidomethyl)-N-[1-(thiophen-2-yl)ethyl]pyridazine-3-carboxamide],10,> 10
Cn1cccc1CNC(=O)c1ccc(CNS(=O)(=O)c2ccc(F)c(Cl)c2)nc1 [6-(3-chloro-4-fluorobenzenesulfon-amidomethyl)-N-[(1-methyl-1H-pyrrol-2-yl)methyl]pyridine-3-carboxamide],10,> 10
COc1ccc(CNC(=O)c2cnc(CNS(=O)(=O)c3ccc(F)c(Cl)c3)cn2)cn1 [5-(3-chloro-4-fluorobenzenesulfon-amidomethyl)-N-[(6-methoxypyridin-3-yl)methyl]pyrazine-2-carboxamide],10,> 10
CN(C)CCNC(=O)c1ccc(CNS(=O)(=O)c2ccc(F)c(Cl)c2)cn1 [5-(3-chloro-4-fluorobenzenesulfon-amidomethyl)-N-[2-(dimethylamino)ethyl] pyridine-2-carboxamide],10,> 10
"Cc1ncc(CNC(=O)c2ccc(CNS(=O)(=O)c3ccc(Cl)s3)cn2)s1 [5-(5-chlorothiophene-2-sulfonamidomethyl)-N-[(2-methyl-1,3-thiazol-5-yl)methyl]pyridine-2-carboxamide]",10,> 10
O=C(NCc1ncccc1C(F)(F)F)c1ccc(CNS(=O)(=O)c2ccc(F)c(Cl)c2)cn1 [5-(3-chloro-4-fluorobenzenesulfon-amidomethyl)-N-{[3-(trifluoromethyl)pyridin-2-yl]methyl}pyridine-2-carboxamide],10,> 10
"Cc1csc(CNC(=O)c2ccc(CNS(=O)(=O)c3ccc(F)c(Cl)c3)cn2)n1 [5-(3-chloro-4-fluorobenzenesulfon-amidomethyl)-N-[(4-methyl-1,3-thiazol-2-yl)methyl]pyridine-2-carboxamide]",10,> 10
CN(C)CCCNC(=O)c1ccc(CNS(=O)(=O)c2ccc(F)c(Cl)c2)nc1 [6-(3-chloro-4-fluorobenzenesulfon-amidomethyl)-N-[3-(dimethylamino)propyl] pyridine-3-carboxamide],10,> 10
COc1ccc(CNC(=O)c2ccc(CNS(=O)(=O)c3ccc(F)c(Cl)c3)nc2)cc1 [6-(3-chloro-4-fluorobenzenesulfon-amidomethyl)-N-[(4-methoxyphenyl)methyl] pyridine-3-carboxamide],10,> 10
CN(C)CCNC(=O)c1ccc(CNS(=O)(=O)c2ccc(F)c(Cl)c2)nc1 [6-(3-chloro-4-fluorobenzenesulfon-amidomethyl)-N-[2-(dimethylamino)ethyl] pyridine-3-carboxamide],10,> 10
"Cc1ncc(CNC(=O)c2ccc(CNS(=O)(=O)c3ccc(Cl)nc3)cn2)s1 [5-(6-chloropyridine-3-sulfonamidomethyl)-N-[(2-methyl-1,3-thiazol-5-yl)methyl]pyridine-2-carboxamide]",10,> 10
"Cc1nnc(CNC(=O)c2ccc(CNS(=O)(=O)c3ccc(F)c(Cl)c3)nc2)s1 [6-(3-chloro-4-fluorobenzenesulfon-amidomethyl)-N-[(5-methyl-1,3,4-thiadiazol-2-yl)methyl]pyridine-3-carboxamide]",10,> 10

# Second part, the compound after the results:
IC50 [1] [µM],IC50 (read-out: Binned Activity) [µM],Structure (SMILES)
10,> 10,O=C(NCc1ccsc1)c1ccc(CNS(=O)(=O)c2ccc(F)c(Cl)c2)cn1 [5-(3-chloro-4-fluorobenzenesulfon-amidomethyl)-N-(thiophen-3-ylmethyl)pyridine-2-carboxamide]
10,> 10,"Cc1ncc(CNC(=O)c2ccc(CNS(=O)(=O)c3ccccc3F)cn2)s1 [5-(2-fluorobenzenesulfon-amidomethyl)-N-[(2-methyl-1,3-thiazol-5-yl)methyl]pyridine-2-carboxamide]"
10,> 10,"Cc1ncc(CNC(=O)c2ccc(CNS(=O)(=O)c3cccc4cccnc34)cn2)s1 [N-[(2-methyl-1,3-thiazol-5-yl)methyl]-5-(quinoline-8-sulfonamidomethyl) pyridine-2-carboxamide]"
–,< 0.1,"CCc1nc(C(=O)NCc2cnc(C)s2)cnc1CNS(=O)(=O)c1ccc(F)c(Cl)c1 [5-(3-chloro-4-fluorobenzenesulfon-amidomethyl)-6-ethyl-N-[(2-methyl-1,3-thiazol-5-yl)methyl]pyrazine-2-carboxamide]"
–,1 to 10,"O=C(NCc1cnco1)c1ccc(CNS(=O)(=O)c2ccc(F)c(Cl)c2)cn1 [5-(3-chloro-4-fluorobenzenesulfon-amidomethyl)-N-(1,3-oxazol-5-ylmethyl)pyridine-2-carboxamide]"
–,0.1 to 1,"Cc1ncc(CNC(=O)c2cnc(CNS(=O)(=O)c3ccc(Cl)c(Cl)c3)c(C)n2)s1 [5-(3,4-dichlorobenzenesulfon-amidomethyl)-6-methyl-N-[(2-methyl-1,3-thiazol-5-yl)methyl]pyrazine-2-carboxamide]"
–,0.1 to 1,Cc1ccncc1CNC(=O)c1ccc(CNS(=O)(=O)c2ccc(F)c(Cl)c2)cn1 [5-(3-chloro-4-fluorobenzenesulfon-amidomethyl)-N-[(4-methylpyridin-3-yl)methyl]pyridine-2-carboxamide]
–,0.1 to 1,Cc1ccncc1CNC(=O)c1cnc(CNS(=O)(=O)c2ccc(F)c(Cl)c2)cn1 [5-(3-chloro-4-fluorobenzenesulfon-amidomethyl)-N-[(4-methylpyridin-3-yl)methyl]pyrazine-2-carboxamide]
–,0.1 to 1,O=C(NCc1cnccn1)c1ccc(CNS(=O)(=O)c2ccc(F)c(Cl)c2)nc1 [6-(3-chloro-4-fluorobenzenesulfon-amidomethyl)-N-(pyrazin-2-ylmethyl)pyridine-3-carboxamide]
–,1 to 10,"Cc1ncc(CNC(=O)c2ccc(CNS(=O)(=O)c3cccs3)cn2)s1 [N-[(2-methyl-1,3-thiazol-5-yl)methyl]-5-(thiophene-2-sulfonamidomethyl) pyridine-2-carboxamide]"
–,0.1 to 1,O=C(NCc1cccnc1)c1cnc(CNS(=O)(=O)c2ccc(F)c(Cl)c2)cn1 [5-(3-chloro-4-fluorobenzenesulfon-amidomethyl)-N-(pyridin-3-ylmethyl)pyrazine-2-carboxamide]
–,1 to 10,O=C(NCc1cnccn1)c1ccc(CNS(=O)(=O)c2ccc(F)c(Cl)c2)cn1 [5-(3-chloro-4-fluorobenzenesulfon-amidomethyl)-N-(pyrazin-2-ylmethyl)pyridine-2-carboxamide]
–,< 0.1,"Cc1ncc(CNC(=O)c2cnc(CNS(=O)(=O)c3ccc(F)c(Cl)c3)c(C)n2)s1 [5-(3-chloro-4-fluorobenzenesulfon-amidomethyl)-6-methyl-N-[(2-methyl-1,3-thiazol-5-yl)methyl]pyrazine-2-carboxamide]"
–,1 to 10,"Cc1nnc(CNC(=O)c2cnc(CNS(=O)(=O)c3ccc(F)c(Cl)c3)cn2)o1 [5-(3-chloro-4-fluorobenzenesulfon-amidomethyl)-N-[(5-methyl-1,3,4-oxadiazol-2-yl)methyl]pyrazine-2-carboxamide]"
–,1 to 10,"Cc1ncc(CNC(=O)c2cnc(CNS(=O)(=O)c3ccc(Cl)c(F)c3)c(C)n2)s1 [5-(4-chloro-3-fluorobenzenesulfon-amidomethyl)-6-methyl-N-[(2-methyl-1,3-thiazol-5-yl)methyl]pyrazine-2-carboxamide]"
